According to patent US9770439B2, “Hepatitis C virus inhibitors” (priority 2013, dated 2017):
Where two headings read alike, the source gives them in different places.

Legend:
Assay type in all cases: cell-based
[1] = test system: HCV replicon, genotype 1a Y93H variant with tyrosine 93 changed to histidine in the NS5A protein; conditions: genotype 1a Y93H replicon; test compound titrated with compound N47 fixed at 200 nM versus titrated singly
Protocol: Combinations can be examined for synergistic activity using a variety of putative NS5A-targeting compounds and a variety of test compounds. […] The test compound can be chosen from compounds exemplified below, which were prepared by methods known in the art, or from others disclosed in the literature.
Similarly, BMS-790052 can be tested singly and in combination with a fixed amount of compound N47 in the HCV replicon cell based assay consisting of the genotype 1a Y93H variant with tyrosine 93 changed to histidine in the NS5A protein.

[2] = test system: HCV replicon, genotype 1a L31V variant with leucine 31 changed to valine in the NS5A protein; conditions: genotype 1a L31V replicon; test compound titrated with compound N47 fixed at 200 nM versus titrated singly
[3] = test system: HCV replicon, genotype-1a variant with glutamine 30 changed to glutamate in the NS5A protein
From the text: The NS5A synergistic inhibitory effect of test compounds can be determined using various amounts of an NS5A-targeting compound with titration of a second compound of interest. […] In one embodiment, the HCV genotype strain can be genotype 1a containing a change at amino acid 30 of the NS5A protein consisting of glutamine to glutamate. The test compound can be chosen from compounds listed above or from others present in the literature.

[4] = ranking of synergist activity, test compound titrated with BMS-790052 fixed at 200 nM, genotype 1a Q30E replicon

Compound | Fold - Synergistic G-1a (Y93H) [1] [Fold] | Fold - Synergistic G-1a (L31V) [2] [Fold] | Fold-Synergistic 1a (Q30E) [3, 4] | Fold-Synergistic 1a (Q30E) [3]
COC(=O)N[C@H](C(=O)N1C(c2ncc(-c3ccc(-c4ccc(-c5cnc([C@@H]6CCC7CC7N6C(=O)[C@@H](NC(=O)OC)C(C)C)[nH]5)cc4)cc3)[nH]2)CCC2CC21)C(C)C (some centres unmarked) | >100 | >100 |  | 
COC(=O)N[C@H](C(=O)N1C(c2ncc(-c3ccc(-c4cc5cc(-c6c[nH]c([C@@H]7C[C@H]8C[C@H]8N7C(=O)[C@@H](NC(=O)OC)C7CCOCC7)n6)ccc5o4)cc3)[nH]2)C[C@H]2C[C@H]21)C1CCOCC1 (some centres unmarked) | <10 | <10 |  | 
COC(c1ccccc1)C1(C(=O)N[C@H](c2nc(-c3ccc(-c4ccc(-c5c[nH]c([C@@H](NC(=O)C6(C(OC)c7ccccc7)CC6)C(C)(C)C)n5)cc4)cc3)c[nH]2)C(C)(C)C)CC1 (some centres unmarked) [Example N-137] |  |  | <10 | 
COC(=O)N[C@H](C(=O)N1[C@@H]2C[C@@H]2C[C@H]1C(=O)Nc1ccc(C23CCC4C5CC6(c7ccc(NC(=O)[C@@H]8C[C@H]9C[C@H]9N8C(=O)[C@@H](NC(=O)OC)C(C)C)cc7)CC4C(C2)C(C6)C5C3)cc1)C(C)C | <10 | <10 |  | 
COC(=O)N[C@H](C(=O)N1[C@@H]2C[C@@H]2C[C@H]1c1ncc(-c2ccc(C#Cc3ccc(-c4cnc([C@@H]5C[C@H]6C[C@H]6N5C(=O)[C@@H](NC(=O)OC)C(C)C)[nH]4)cc3)cc2)[nH]1)C(C)C | >10 | <10 |  | 
COC(=O)N[C@H](C(=O)N1[C@H]2C[C@@]2(C)C[C@H]1c1ncc(-c2ccc(-c3ccc(-c4cnc([C@@H]5C[C@@H]6C[C@@H]6N5C(=O)[C@@H](NC(=O)OC)C(C)C)[nH]4)cc3)cc2)[nH]1)C(C)C | >100 | >100 |  | 
COC(=O)N[C@@H](C(=O)N1CCC[C@H]1c1nc2ccc(C3=NCC(c4ccc(N5CCOCC5)cc4)O3)cc2[nH]1)c1ccccc1 (some centres unmarked) | <10 | <10 |  | 
Cc1nc2cccc(-c3ncc(-c4ccc5nc([C@@H]6CCCN6C(=O)[C@@H](c6ccccc6)N(C)C)[nH]c5c4)o3)c2[nH]1 |  | >10 |  | 
COC(=O)N[C@H](C(=O)N1C[C@H](C)C[C@H]1c1ncc(-c2ccc(-c3ccc4cc(-c5cnc([C@@H]6C[C@@H](C)CN6C(=O)[C@@H](NC(=O)OC)C(C)C)[nH]5)ccc4c3)cc2)[nH]1)C(C)C | >10 | <10 |  | 
COC(=O)N[C@H](C(=O)N1C2C[C@@H]2C[C@H]1c1ncc(-c2ccc(C#Cc3ccc(-c4cnc([C@@H]5C[C@H]6C[C@H]6N5C(=O)[C@@H](NC(=O)OC)C(C)C)[nH]4)cc3)cc2)[nH]1)C(C)C (some centres unmarked) | >10 | <10 |  | 
COC(=O)N[C@H](C(=O)N1CCCC1c1nc2ccc(C#CC#Cc3ccc4nc([C@@H]5CCCN5C(=O)[C@@H](NC(=O)OC)C(C)C)[nH]c4c3)cc2[nH]1)C(C)C (some centres unmarked) | >10 | >100 |  | 
CC(C)(C)C(=O)N[C@H](c1ncc(-c2ccc(-c3ccc(-c4cnc([C@@H](NC(=O)C(C)(C)C)C(C)(C)CF)[nH]4)cc3)cc2)[nH]1)C(C)(C)CF [Compound Y-68] |  |  | >100 | 
CC1([C@H](NC(=O)[C@]2(C)CCCC[C@@H]2O)c2ncc(-c3ccc(-c4ccc(-c5cnc([C@@H](NC(=O)[C@]6(C)CCCC[C@@H]6O)C6(C)CC6)[nH]5)cc4)cc3)[nH]2)CC1 [Compound Y-116] |  |  |  | >100
COC(=O)N[C@H](C(=O)N1CCCC1c1cn(-c2ccc(-c3ccc(-n4cnc([C@@H]5CCCN5C(=O)[C@@H](NC(=O)OC)C(C)C)c4)cc3)cc2)cn1)C(C)C (some centres unmarked) | >10 | >10 |  | 
CC(C)(C)C(=O)NC(c1ncc(-c2ccc(-c3ccc(-c4cnc([C@@H](NC(=O)C(C)(C)C)C5(C)CCC5)[nH]4)cc3)cc2)[nH]1)C1(C)CCC1 (some centres unmarked) [Compound Y-39] |  |  |  | >100
COC(=O)N[C@@H](C(=O)N1CCCC1c1ncc(-c2ccc(-c3ccc(-c4cnc([C@@H]5CCCN5C(=O)[C@H]5CCCO5)[nH]4)cc3)cc2)[nH]1)c1ccccc1 (some centres unmarked) | <10 | <10 |  | 

Compound | Fold - Synergistic G-1a (Y93H) [1] [Fold] | Fold - Synergistic G-1a (L31V) [2] [Fold] | Fold-Synergistic 1a (Q30E) [3, 4] | Fold-Synergistic 1a (Q30E) [3]
COc1ccccc1C(O)C1(C(=O)N[C@H](c2nc(-c3ccc(-c4ccc(-c5c[nH]c([C@@H](NC(=O)C6(C(O)c7ccccc7OC)CC6)C(C)(C)C)n5)cc4)cc3)c[nH]2)C(C)(C)C)CC1 (single isomer, unassigned) [Compound N-135A] |  |  |  | >100
O=C(C(=O)N1C(c2nc(-c3ccc(-c4ccc(-c5c[nH]c(C6C[C@@H]7C[C@@H]7N6C(=O)C(=O)N6CCC(F)(F)CC6)n5)cc4)cc3)c[nH]2)C[C@@H]2C[C@@H]21)N1CCC(F)(F)CC1 (some centres unmarked) [Compound W-243] |  |  |  | >100
COC(=O)N[C@H](C(=O)CN1C(c2ncc(-c3ccc(C#Cc4ccc5c(ccc6[nH]c([C@@H]7C[C@H]8C[C@H]8N7C(=O)[C@@H](NC(=O)OC)C(C)C)nc65)c4)cc3)[nH]2)C[C@H]2C[C@H]21)C(C)C (some centres unmarked) | >10 | <10 |  | 
COC(=O)N[C@H](C(=O)N1CCCC1c1ncc(C#Cc2ccc3cc(C#Cc4cnc([C@@H]5CCCN5C(=O)[C@@H](NC(=O)OC)C(C)C)[nH]4)ccc3c2)[nH]1)C(C)C (some centres unmarked) | <10 | >10 |  | 
CCOC(=O)NC1(C(=O)N[C@H](c2nc(-c3ccc(-c4ccc(-c5c[nH]c([C@@H](NC(=O)C6(NC(=O)OCC)CCCCC6)C(C)(C)C)n5)cc4)cc3)c[nH]2)C(C)(C)C)CCCCC1 [Compound W-250] |  |  |  | >100
COC(=O)N[C@H](C(=O)N1C[C@@H](C)CC1c1ncc(-c2ccc(-c3ccc4cc(-c5cnc([C@@H]6C[C@H](C)CN6C(=O)[C@@H](NC(=O)OC)C(C)C)[nH]5)ccc4c3)cc2)[nH]1)C(C)C (some centres unmarked) | >10 | <10 |  | 
COC(=O)N[C@H](C(=O)N1C2CC2CC[C@H]1c1ncc(-c2ccc(-c3ccc(-c4cnc([C@@H]5CCC6CC6N5C(=O)[C@@H](NC(=O)OC)C(C)C)[nH]4)cc3)cc2)[nH]1)C(C)C (some centres unmarked) | >100 | >100 |  | 
COC(=O)N[C@H](C(=O)N1CC[C@H](C)C1c1ncc(-c2ccc(-c3ccc(-c4cnc([C@@H]5[C@@H](C)CCN5C(=O)[C@@H](NC(=O)OC)C(C)C)[nH]4)cc3)cc2)[nH]1)C(C)C (some centres unmarked) | >100 | >100 |  | 
CN(C)[C@H](C(=O)N1CCCC[C@H]1c1ncc(-c2ccc(-c3ccc(-c4cnc([C@@H]5CCCCN5C(=O)[C@@H](c5ccccc5)N(C)C)[nH]4)cc3)cc2)[nH]1)c1ccccc1 | >10 | <10 |  | 
CC[C@H]1CC[C@@H](c2ncc(-c3ccc(-c4ccc(-c5cnc([C@@H]6CC[C@H](CC)N6C(=O)[C@@H](NC(=O)OC)C(C)C)[nH]5)cc4)cc3)[nH]2)N1C(=O)C(NC(=O)OC)C(C)C (some centres unmarked) | >100 | >100 |  | 
COC(=O)N[C@H](C(=O)N1CCCC1c1nc2ccc(-c3ccc4cc(-c5ccc6nc([C@@H]7CCCN7C(=O)[C@@H](NC(=O)OC)C(C)C)[nH]c6c5)ccc4n3)cc2[nH]1)C(C)C (some centres unmarked) | >10 | >10 |  | 
O=C(Cc1ccccc1)N1CCCC1c1nc2cc(-c3ccc4nc([C@@H]5CCCN5C(=O)Cc5ccccc5)[nH]c4c3)ccc2[nH]1 (some centres unmarked) | <10 | <10 |  | 
CN(C)[C@@H](C(=O)N1CCC[C@H]1C1=NC(c2ccc(OCc3ccc(-c4c[nH]c([C@@H]5CCCN5C(=O)[C@@H](c5ccccc5)N(C)C)n4)cc3)cc2)CN1)c1ccccc1 (some centres unmarked) | <10 | <10 |  | 
COC(=O)N[C@H](C(=O)CN1[C@@H]2C[C@@H]2C[C@H]1c1nc2ccc3cc(C#Cc4ccc5c(ccc6nc([C@@H]7C[C@H]8C[C@H]8N7C(=O)[C@@H](NC(=O)OC)C(C)C)[nH]c65)c4)ccc3c2[nH]1)C(C)C | >10 | >10 |  | 
CN(C)[C@@H](C(=O)N1CCC[C@H]1C(=O)Nc1cccc(-c2ncc(-c3ccc4nc([C@@H]5CCCN5C(=O)[C@@H](c5ccccc5)N(C)C)[nH]c4c3)o2)c1)c1ccccc1 | 10 |  |  | 
